Laboratory results published in US20250144067A1, “PERSONALIZED STARVATION THERAPY FOR CANCER” (Faeth Therapeutics, Inc., priority 2021, published 2025).
Where a name gives a salt, the structure may show the parent alone.

Experiments:
[1] = system: NCI-H292 lung cancer cells; test: FDA drug screening, complete media vs cholesterol-free media without statin (TABLE 1); type: cell-based, human
[2] = system: NCI-H292 lung cancer cells; test: FDA drug screening, complete media vs cholesterol-free media with simvastatin (TABLE 2); type: cell-based, human; details: for Cholesterol-free media + simvastatin (0.04 μM) / Complete Media: NCI-H292 cells
[3] = Complete minus Cholesterol-free, >0 enhanced anti-cancer activity, about 0 neutral, <0 antagonist
[4] = NCI-H292 cells, cholesterol-free media without statin, FDA drug library screen
[5] = NCI-H292 cells, complete media, FDA drug library screen
[6] = cholesterol-free media with simvastatin 0.04 μM, cell growth value in FDA drug screen
[7] = complete media, cell growth value in FDA drug screen
[8] = complete media minus cholesterol-free media + simvastatin, >0 enhanced anti-cancer activity, about 0 neutral, <0 antagonist
[9] = NCI-H292 cells, cholesterol-free media without statin
[10] = complete vs cholesterol-free media, greater than 0 enhanced anti-cancer activity, about 0 neutral, below 0 antagonists
[11] = FDA drug library screen, cholesterol-free media with simvastatin 0.04 μM
[12] = FDA drug library screen, complete media
[13] = complete media vs cholesterol-free media + simvastatin (0.04 μM), >0 enhanced anti-cancer activity, about 0 neutral, <0 antagonist
[14] = Complete minus Cholesterol-free, […]
[15] = NCI-H292 cells, FDA drug library screen, cholesterol-free media without statin
[16] = NCI-H292 cells, FDA drug library screen, complete media
[17] = complete media minus cholesterol-free media + simvastatin, […]
[18] = Complete minus Cholesterol-free, greater than 0 enhanced anti-cancer activity, about 0 neutral, below 0 antagonists
[19] = NCI-H292 cells in cholesterol-free media without statin
[20] = NCI-H292 cells in complete media
[21] = FDA library drug in cholesterol-free media with simvastatin 0.04 μM
[22] = FDA library drug in complete media
[23] = drug in cholesterol-free media with simvastatin 0.04 μM
[24] = Complete minus Cholesterol-free, greater than 0 enhanced anti-cancer activity, about 0 neutral, below 0 antagonist
[25] = cholesterol-free media with simvastatin 0.04 μM, FDA drug library screen (TABLE 2)
[26] = complete media, FDA drug library screen (TABLE 2)
[27] = complete media minus cholesterol-free media + simvastatin (0.04 μM), >0 enhanced anti-cancer activity, about 0 neutral, <0 antagonist

CN1C(=O)COc2c(C(=O)NC3CN4CCC3CC4)cc(Cl)cc21 (stereo not drawn) [Azasetron (hydrochloride)]
Difference [1, 3]: −0.07 | Cholesterol-free [1, 4]: 0.8277 | Complete [1, 5]: 0.7612 | Cholesterol-free media + simvastatin (0.04 μM) [2, 6]: 0.9264 | Complete Media [2, 7]: 0.9552 | Difference [2, 8]: 0.03

CC(=O)[C@H]1CC[C@H]2[C@@H]3CCC4=CC(=O)CC[C@]4(C)[C@H]3CC[C@]12C [Progesterone]
Cholesterol-free [1, 9]: 1.057 | Complete ([1]; NCI-H292 cells, complete media): 0.6641 | Difference [1, 10]: −0.39 | Cholesterol-free media + simvastatin (0.04 μM) [2, 11]: 1.054 | Complete Media [2, 12]: 0.9232 | Difference [2, 13]: −0.13

c1ccc2c(c1)Nc1ccccc1S2 [Phenothiazine]
Difference [1, 14]: −0.11 | Cholesterol-free [1, 15]: 1.108 | Complete [1, 16]: 1.002 | Cholesterol-free media + simvastatin (0.04 μM) ([2]; cholesterol-free media with simvastatin 0.04 μM, […]): 1.18 | Complete Media ([2]; complete media, […]): 1.261 | Difference [2, 17]: 0.08

Cc1ccccc1N1CCN(CCc2nnc3n2CCCC3)CC1 [Dapiprazole (hydrochloride)]
Difference [1, 18]: −0.49 | Cholesterol-free [1, 19]: 1.532 | Complete [1, 20]: 1.043 | Cholesterol-free media + simvastatin (0.04 μM) [2, 21]: 1.337 | Complete Media [2, 22]: 1.063 | Difference [2, 13]: −0.27

CC1(C)CCC(C)(C)c2cc(NC(=O)c3ccc(C(=O)O)cc3)ccc21 [Tamibarotene]
Difference [1, 14]: −0.24 | Cholesterol-free [1, 9]: 0.7767 | Complete ([1]; NCI-H292 cells, complete media): 0.5392 | Cholesterol-free media + simvastatin (0.04 μM) [2, 11]: 0.556 | Complete Media [2, 12]: 0.7365 | Difference [2, 17]: 0.18

Cc1ccc(NC(=O)C2(c3ccc4c(c3)OC(F)(F)O4)CC2)nc1-c1cccc(C(=O)O)c1 [Lumacaftor]
Difference [1, 3]: −0.19 | Cholesterol-free [1, 9]: 1.044 | Complete ([1]; NCI-H292 cells, complete media): 0.854 | Cholesterol-free media + simvastatin (0.04 μM) [2, 23]: 1.744 | Complete Media ([2]; drug in complete media): 1.539 | Difference [2, 13]: −0.20

CC1COc2c(N3CCN(C)CC3)c(F)cc3c(=O)c(C(=O)O)cn1c23 (stereo not drawn) [Ofloxacin]
Cholesterol-free [1, 9]: 1.221 | Complete ([1]; NCI-H292 cells, complete media): 0.8562 | Difference [1, 10]: −0.36 | Cholesterol-free media + simvastatin (0.04 μM) [2, 23]: 1.154 | Complete Media ([2]; drug in complete media): 0.9389 | Difference [2, 13]: −0.22

CC1(C)S[C@@H]2[C@H](NC(=O)[C@H](N)c3ccccc3)C(=O)N2[C@H]1C(=O)[O-].[Na+] [Ampicillin (sodium)]
Cholesterol-free [1, 9]: 1.356 | Complete ([1]; NCI-H292 cells, complete media): 0.9032 | Difference [1, 10]: −0.45 | Cholesterol-free media + simvastatin (0.04 μM) [2, 23]: 1.087 | Complete Media ([2]; drug in complete media): 0.8623 | Difference [2, 13]: −0.22

Clc1ccc(C(c2ccccc2Cl)C(Cl)Cl)cc1 (stereo not drawn) [Mitotane]
Difference [1, 3]: −0.20 | Cholesterol-free [1, 9]: 1.108 | Complete ([1]; NCI-H292 cells, complete media): 0.9109 | Cholesterol-free media + simvastatin (0.04 μM) [2, 23]: 1.345 | Complete Media ([2]; drug in complete media): 1.125 | Difference [2, 13]: −0.22

CC1(C)CCC(CN2CCN(c3ccc(C(=O)NS(=O)(=O)c4ccc(NCC5CCOCC5)c([N+](=O)[O-])c4)c(Oc4cnc5[nH]ccc5c4)c3)CC2)=C(c2ccc(Cl)cc2)C1 [Venetoclax]
Difference [1, 18]: −0.58 | Cholesterol-free [1, 19]: 1.517 | Complete [1, 20]: 0.9332 | Cholesterol-free media + simvastatin (0.04 μM) [2, 11]: 1.767 | Complete Media [2, 12]: 1.658 | Difference [2, 13]: −0.11

C[S+](CC[C@H](N)C(=O)O)C[C@H]1O[C@@H](n2cnc3c(N)ncnc32)[C@H](O)[C@@H]1O.Cc1ccc(S(=O)(=O)[O-])cc1 (stereo partly drawn) [S-Adenosyl-L-methionine (tosylate)]
Cholesterol-free [1, 4]: 0.8583 | Complete [1, 5]: 1.043 | Difference ([1]; complete vs cholesterol-free media, >0 enhanced anti-cancer activity, about 0 neutral, <0 antagonist): 0.19 | Cholesterol-free media + simvastatin (0.04 μM) [2, 11]: 1.239 | Complete Media [2, 12]: 1.842 | Difference [2, 8]: 0.60

NC(=O)OC[C@H](N)Cc1ccccc1 [Solriamfetol (hydrochloride)]
Difference [1, 14]: −0.02 | Cholesterol-free [1, 4]: 1.017 | Complete [1, 5]: 1 | Cholesterol-free media + simvastatin (0.04 μM) [2, 11]: 0.997 | Complete Media [2, 12]: 1.138 | Difference [2, 17]: 0.14

CC(C)Cc1ccc(C(C)C(=O)OCc2ccccn2)cc1 (stereo not drawn) [Ibuprofen piconol]
Difference [1, 24]: −0.18 | Cholesterol-free [1, 15]: 1.26 | Complete [1, 16]: 1.082 | Cholesterol-free media + simvastatin (0.04 μM) [2, 21]: 1.357 | Complete Media [2, 22]: 0.8958 | Difference [2, 13]: −0.46

COC(=O)[C@H]1[C@H]2C[C@@H]3c4[nH]c5cc(OC)ccc5c4CCN3C[C@H]2C[C@@H](OC(=O)c2cc(OC)c(OC)c(OC)c2)[C@@H]1OC [Reserpine (hydrochloride)]
Cholesterol-free [1, 9]: 1.178 | Complete ([1]; NCI-H292 cells, complete media): 0.8568 | Difference [1, 10]: −0.32 | Cholesterol-free media + simvastatin (0.04 μM) [2, 23]: 1.074 | Complete Media ([2]; drug in complete media): 0.834 | Difference [2, 13]: −0.24

COc1cc(Nc2c(C#N)cnc3cc(OCCCN4CCN(C)CC4)c(OC)cc23)c(Cl)cc1Cl [Bosutinib]
Difference [1, 3]: 0.05 | Cholesterol-free [1, 4]: 0.4091 | Complete [1, 5]: 0.4542 | Cholesterol-free media + simvastatin (0.04 μM) [2, 6]: 0.2873 | Complete Media [2, 7]: 0.3524 | Difference [2, 8]: 0.07

CN(C)C(=O)Oc1cccc([N+](C)(C)C)c1.COS(=O)(=O)[O-] [Neostigmine (methyl sulfate)]
Cholesterol-free [1, 9]: 1.718 | Complete ([1]; NCI-H292 cells, complete media): 1.281 | Difference ([1]; complete vs cholesterol-free media, […]): −0.44 | Cholesterol-free media + simvastatin (0.04 μM) [2, 11]: 0.8206 | Complete Media [2, 12]: 1.308 | Difference [2, 17]: 0.49

COc1ccc(CCO[C@@H]2CCCC[C@H]2N2CC[C@@H](O)C2)cc1OC [Vernakalant (Hydrochloride)]
Difference [1, 3]: −0.26 | Cholesterol-free [1, 9]: 1.252 | Complete ([1]; NCI-H292 cells, complete media): 0.9876 | Cholesterol-free media + simvastatin (0.04 μM) [2, 6]: 1.555 | Complete Media [2, 7]: 1.614 | Difference [2, 8]: 0.06

NC(=O)N[C@@H](CCC(=O)O)C(=O)O [Carglumic Acid]
Difference [1, 24]: −0.10 | Cholesterol-free [1, 15]: 1.036 | Complete [1, 16]: 0.9389 | Cholesterol-free media + simvastatin (0.04 μM) [2, 11]: 0.9383 | Complete Media [2, 12]: 1.207 | Difference [2, 8]: 0.27

C[C@@H]1C[C@H]2[C@@H]3CCC4=CC(=O)C=C[C@]4(C)[C@@]3(Cl)[C@@H](O)C[C@]2(C)[C@@]1(OC(=O)c1ccco1)C(=O)CCl [Mometasone furoate]
Difference [1, 3]: −0.24 | Cholesterol-free [1, 9]: 0.8128 | Complete ([1]; NCI-H292 cells, complete media): 0.5699 | Cholesterol-free media + simvastatin (0.04 μM) [2, 6]: 0.7611 | Complete Media [2, 7]: 0.8877 | Difference [2, 8]: 0.13

CN(Cc1cnc2nc(N)nc(N)c2n1)c1ccc(C(=O)N[C@@H](CCC(=O)[O-])C(=O)[O-])cc1.[Na+].[Na+] [Methotrexate (disodium)]
Difference [1, 3]: −0.05 | Cholesterol-free [1, 4]: 0.06701 | Complete [1, 5]: 0.01682 | Cholesterol-free media + simvastatin (0.04 μM) [2, 25]: 0.2727 | Complete Media [2, 26]: 0.2318 | Difference [2, 27]: −0.04

CCCCCCCCCCCCCCCCCCOCC(O)CO (stereo not drawn) [Batilol]
Difference [1, 18]: −0.55 | Cholesterol-free [1, 19]: 1.321 | Complete [1, 20]: 0.7704 | Cholesterol-free media + simvastatin (0.04 μM) [2, 25]: 0.9215 | Complete Media [2, 26]: 0.9293 | Difference [2, 27]: 0.01
